This note sets out measurements from US20250367343A1, “CLINICAL DRESSING LOADED WITH COFFEE EXTRACT” (KING SAUD UNIVERSITY, priority 2024, published 2025).

In the assay the test system is methicillin-resistant Staphylococcus aureus (ATCC 43300). In words: Standard antibiotic sensitivity test using the Vitek-2 system. The assay is classed as cell-based. Particulars: strain ATCC 43300.
Regarding `CC1(C)S[C@@H]2[C@H](NC(=O)[C@H](N)c3ccccc3)C(=O)N2[C@H]1C(=O)O` [ampicillin], the “antibiotic sensitivity of the MRSA strain” value is recorded as “resistant”. To `CO[C@@]1(NC(=O)Cc2cccs2)C(=O)N2C(C(=O)O)=C(COC(N)=O)CS[C@@H]21` [cefoxitin] belongs “resistant”; to `Cc1onc(-c2ccccc2)c1C(=O)N[C@@H]1C(=O)N2[C@@H]1SC(C)(C)[C@@H]2C(=O)O` [oxacillin], “resistant”; to `CC1(C)S[C@@H]2[C@H](NC(=O)Cc3ccccc3)C(=O)N2[C@H]1C(=O)O` [penicillin G], “resistant”. As to amoxicillin-alavulanate, the “antibiotic sensitivity of the MRSA strain” value was “resistant”.
